Results published in patent JPH01254654A, “スルホン酸の誘導体及びその塩” (Dainippon Pharmaceutical Co Ltd, priority 1988, dated 1989).

Assays:
[1] = intracerebroventricular or parenteral administration; cited from earlier work
[2] = Analgesic action on oral administration (mean writhing number; method of JP 62-270555); type: in vivo; conditions: 200mg/kg

Row | SMILES | analgesic action [1] | inhibition rate (analgesic action; (A-B) x 100/A, A: mean writhing number of control group, B: that of test substance group) [2]
1 | O=C(O)CNC(=O)C(CS)Cc1ccccc1 (racemic) [チオルファン, ((It、L)−2−メルカプトメチル−3−フェニルプロピオニル〕グリシン] | 鎮痛作用を有する | –
2 | CC(=O)SCC(CC1CN(Cc2ccccc2)CCO1)C(=O)Nc1ccc(S(=O)(=O)[O-])cc1.[Na+] (centres unmarked) [実施例1] | – | 61.6 χ
